pKi: −log10 of the molar value.
Legend:
M2 muscarinic receptor = biological target: T1, M2 muscarinic receptor (Rattus norvegicus, UniProt P10980); assay: Radioligand binding assay, [3H]-N-methylscopolamine, rat heart membranes; settings: [3H]-NMS binding, Ki by Cheng & Prusoff; for pKi: read-out: M2 pki
T1 construct: Submandibular glands and heart were isolated and placed in ice cold homogenising buffer; from tissue; host or cells: rat heart membrane homogenate
T1 sequence (P10980 1-466): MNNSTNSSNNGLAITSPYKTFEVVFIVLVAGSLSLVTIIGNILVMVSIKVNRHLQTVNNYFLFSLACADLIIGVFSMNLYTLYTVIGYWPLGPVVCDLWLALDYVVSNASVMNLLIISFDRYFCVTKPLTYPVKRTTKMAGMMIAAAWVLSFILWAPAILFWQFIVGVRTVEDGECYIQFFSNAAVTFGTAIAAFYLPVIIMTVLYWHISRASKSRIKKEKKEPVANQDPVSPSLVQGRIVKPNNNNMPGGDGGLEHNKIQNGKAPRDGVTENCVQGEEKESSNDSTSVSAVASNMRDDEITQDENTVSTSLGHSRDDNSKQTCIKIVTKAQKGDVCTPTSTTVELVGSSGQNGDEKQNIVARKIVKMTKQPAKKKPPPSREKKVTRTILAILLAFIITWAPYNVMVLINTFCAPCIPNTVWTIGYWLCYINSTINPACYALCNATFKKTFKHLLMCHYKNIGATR
Procedure: (§1) Radioligand Binding Assays: • The affinity of test compounds for M2 and M3 muscarinic receptor subtypes was determined by [^3H]-N-methylscopolamine binding studies using rat heart and submandibular gland respectively as described by Moriya et al., (Life Sci, 1999, 64(25):2351-2358) with minor modifications. Membrane preparation: Submandibular glands and heart were isolated and placed in ice cold homogenising buffer (HEPES 20 mM, 10 mM EDTA, pH 7.4) immediately after sacrifice. The tissues were homogenised in 10 volumes of homogenising buffer and the homogenate was filtered through two layers of wet gauze and filtrate was centrifuged at 500 g for 10 min. The supernatant was subsequently centrifuged at 40,000 g for 20 min. The pellet thus obtained was resuspended in same volume of assay buffer (HEPES 20 mM, EDTA 5 mM, pH 7.4) and were stored at −70° C. until the time of assay. Ligand binding assay: The compounds were dissolved and diluted in DMSO. The membrane homogenates (150-250 μg protein) were incubated in 250 μl of assay buffer (HEPES 20 mM, pH 7.4) at 24-25° C. for 3 h. Non-specific binding was determined in the presence of 1 μM atropine. The incubation was terminated by vacuum filtration over GF/B fiber filters(Wallac). The filters were then washed with ice cold 50 mM Tris HCl buffer (pH 7.4). The filter mats were dried and bound radioactivity retained on filters was counted. The IC50 & Kd were estimated by using the non-linear curve fitting program using G Pad Prism software. The value of inhibition constant Ki was calculated from competitive binding studies by using Cheng & Prusoff equation (Biochem Pharmacol, 1973, 22: 3099-3108), Ki=IC50/(1+L/Kd), where L is the concentration of [^3H]NMS used in the particular experiment. pki is—[log Ki].

M3 muscarinic receptor = biological target: T2, M3 muscarinic receptor (Rattus norvegicus, UniProt P08483); assay: Radioligand binding assay, [3H]-N-methylscopolamine, rat submandibular gland membranes; settings: [3H]-NMS binding, Ki by Cheng & Prusoff; for pKi: read-out: M3 pki
T2 construct: Submandibular glands and heart were isolated and placed in ice cold homogenising buffer; from tissue; host or cells: rat submandibular gland membrane homogenate
Procedure: as §1

T2 sequence (P08483 whole entry): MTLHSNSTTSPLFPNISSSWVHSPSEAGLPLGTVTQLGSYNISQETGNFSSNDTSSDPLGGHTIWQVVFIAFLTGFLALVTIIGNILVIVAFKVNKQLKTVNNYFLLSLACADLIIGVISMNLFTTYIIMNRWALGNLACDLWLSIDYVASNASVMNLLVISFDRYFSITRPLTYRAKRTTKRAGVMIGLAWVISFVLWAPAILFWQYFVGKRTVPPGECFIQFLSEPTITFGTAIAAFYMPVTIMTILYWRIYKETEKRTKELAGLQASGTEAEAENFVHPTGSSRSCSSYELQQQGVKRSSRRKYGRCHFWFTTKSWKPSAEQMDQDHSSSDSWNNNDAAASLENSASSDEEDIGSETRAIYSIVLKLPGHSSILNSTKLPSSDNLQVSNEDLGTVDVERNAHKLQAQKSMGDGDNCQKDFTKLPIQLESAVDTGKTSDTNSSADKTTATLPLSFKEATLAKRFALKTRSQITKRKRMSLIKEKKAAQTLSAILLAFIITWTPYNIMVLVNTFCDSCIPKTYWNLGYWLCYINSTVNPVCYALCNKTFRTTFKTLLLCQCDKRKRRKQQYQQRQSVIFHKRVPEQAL

Compound: Cc1c(-c2ccccc2)oc2c(C(=O)N[C@H]3[C@@H]4CN(Cc5ccccc5)C[C@@H]43)cccc2c1=O [Compound No. 1, (1α,5α,6α)-6N-[3-benzyl-3-azabicyclo[3.1.0]hexyl]-3methyl-4-oxo-2-phenyl-4H-1-benzopyran-8-carboxamide]
- pKi (M2 muscarinic receptor): < 5.00
- pKi (M3 muscarinic receptor): < 5.00
- melting point: 182 to 184 °C

Compound: Cc1c(-c2ccccc2)oc2c(C(=O)N[C@H]3[C@@H]4CN(Cc5ccc(C#N)cc5)C[C@@H]43)cccc2c1=O [Compound No. 2, (1α,5α,6α)-6N-[3-(4-cyanobenzyl)-3-azabicyclo[3.1.0]hexyl]-3-methyl-4-oxo-2-phenyl-4H-1-benzopyran-8-carboxamide]
- pKi (M2 muscarinic receptor): < 5.00
- pKi (M3 muscarinic receptor): < 5.00

Compound: Cc1c(-c2ccccc2)oc2c(C(=O)NCC3C4CN(Cc5ccccc5)CC34)cccc2c1=O (stereo not drawn) [Compound No. 3, (1α,5α,6α)-N-[3-benzyl-3-azabicyclo[3.1.0]hexyl-6-(aminomethyl)-yl]-3-methyl-4-oxo-2-phenyl-4H-1-benzopyran-8-carboxamide]
- M2 pki (M2 muscarinic receptor): <5.3
- M3 pki (M3 muscarinic receptor): 5.1

Compound: Cc1c(-c2ccccc2)oc2c(C(=O)NCC34CC3CN(Cc3ccccc3)C4)cccc2c1=O (centres unmarked) [Compound No. 5, N-[3-benzyl-3-azabicyclo[3.1.0]hexyl-1-(aminomethyl)-yl]-3-methyl-4-oxo-2-phenyl-4H-1-benzopyran-8-carboxamide]
- pKi (M2 muscarinic receptor): < 6.00
- pKi (M3 muscarinic receptor): < 6.00

Compound: (1α,5α,6α)-N-[3-[4-methyl-3-pentenyl]-3-azabicylo[3.1.0]hexyl-6-(aminomethyl)-3-methyl-4-oxo-2-phenyl-4H-1-benzo-pyran-8-carboxamide [Compound No. 4]
- M2 pki (M2 muscarinic receptor): <6
- M3 pki (M3 muscarinic receptor): <6

From patent publication US7501443B2, “Flavaxate derivatives as muscarinic receptor antagonists” (Ranbaxy Laboratories Limited, priority 2002, dated 2009)
